Results taken from US10441669B2, “Multifunctional chelators, complexes, and compositions thereof, and methods of using same” (ILLINOIS INSTITUTE OF TECHNOLOGY, priority 2013, dated 2019).

Key:
[1] = EDTA challenge of 64Cu-radiolabeled complexes of chelators A-F; format: physicochemical; details: EDTA 100-fold molar excess; for Bound complex (%): 64Cu complex, 37° C.; for 64Cu activity dissociated from the complex / transferred to EDTA: 24 h time point
Method: ^64Cu-radiolabeled complexes were further evaluated for complex stability based on EDTA challenge. ^64Cu-radiolabeled complexes were freshly prepared and treated with a solution of EDTA at a 100-fold molar excess, and the resulting solution (pH 5.5) was incubated at 37° C. for 24 h. […] Among the complexes tested, ^64Cu-radiolabeled pentadentate chelator B was least tolerant of EDTA treated, and most of ^64Cu was dissociated from the complex (˜80%) at 24 h time point. ^64Cu-radiolabeled chelator C containing the carbonyl donor group was found dissociated rapidly in the presence of the excess EDTA, and 50% of the activity was transchelated by EDTA at 1 h time point. ^64Cu-radiolabeled chelators D and F with the respective hydroxyl and thiophenyl donor group were slower in dissociation than ^64Cu-radiolabeled chelators B and C and released >45% of ^64Cu at 24 h time point. Dissociation of the activity from the ^64Cu-radiolabeled chelators was also measured using radio-HPLC at 25 h time point (FIG. 5). The peak related to ^64Cu-EDTA (tR=2.5 min) was clearly separated from bound ^64Cu complex of the chelators. ^64Cu-radiolabeled complex of polar chelators E and F have the respective retention time at […] and 6.2 min, while other ^64Cu-radiolabeled complexes have similar retention time (tR=7˜8 min). The ^64Cu-radiolabeled chelators C and D gave a small peak (tR=˜3 min and tR=˜7 min, respectively).
^64Cu-radiolabeled complexes were prepared by reaction of each chelator (20 μg) with ^64Cu (60 μCi) in 0.25M NH4OAc buffer (pH 5.5) for 2 h at room temperature. The radiolabeled complexes were prepared as described above and directly used for the experiments. ^64Cu-radiolabeled complex was mixed with EDTA at a 100-fold molar excess. The resulting mixture was incubated for 24 h at 37° C. The stability of ^64Cu-radiolabeled complexes in the solution was evaluated using ITLC (20 mM EDTA in 0.15M NH4OAc). A solution of the radiolabeled complex in serum (3˜20 μL) was withdrawn at the designated time points and evaluated by ITLC as described above. Stability of the complexes was also evaluated at 25 h time point by HPLC (solvent A: 0.1% TFA in H2O, solvent B: 0.1% TFA in CH3CN, 0-100% B/15 min, flow rate: 1 mL/min). ^64Cu-EDTA complex was eluted early (tR=˜2.5 min), while ^64Cu-radiolabeled complexes of chelators A-D, E, and F have the respective retention time (tR=7˜8 min, tR=4.6 min, and tR=6.2 min).

[2] = Serum stability of 64Cu-radiolabeled complexes of pyridyl chelators; format: in vitro ADME; details: 64Cu complex, human serum, 37° C.
Method: In vitro serum stability of the radiolabeled complexes was performed to determine if the chelators radiolabeled with ^64Cu remained stable without loss of the radioactivity in human serum as described above. All ^64Cu-radiolabeled chelators remained intact in human serum for 2 days as evidenced by ITLC and HPLC analysis.

[3] = EDTA challenge of 177Lu-radiolabeled pyridyl chelators; format: physicochemical; details: 37° C.; for stability of 177Lu complex in EDTA solution: EDTA 100-fold molar excess, 24 h; for Bound (%): Lu-177 complex, EDTA solution 100-fold molar excess
Method: (§1) ^64Cu- or ^177Lu-radiolabeled complexes were prepared by reaction of each chelator (20 μg) with ^64Cu or ^177Lu (60 μCi) in 0.25M NH4OAc buffer (pH 5.5) for 2 h at room temperature. The radiolabeled complexes were prepared as described above and directly used for the experiments. The radiolabeled complex was mixed with EDTA at a 100-fold molar excess. The resulting mixture was incubated for 24 h at 37° C. The stability of ^64Cu-radiolabeled complexes in the solution was evaluated using ITLC (20 mM EDTA in 0.15M NH40OAc).

[4] = In vitro serum stability of 90Y-radiolabeled bimodal chelator complexes; format: in vitro ADME; details: 90Y complex, human serum, pH 7, 37° C.
Method: Human serum was purchased from Gemini Bioproducts (#100110). The radiolabeled complexes was prepared and directly used for serum stability studies without further purification. The stability of the pure radiolabeled complexes in human serum was evaluated at 37° C. for 2 weeks. The serum stability of the radiolabeled complexes was assessed by measuring the transfer of the radionuclide from each complex to serum proteins using ITLC (acetonitrile/water (3:2 v/v). A solution of the radiolabeled complex in serum (5-16 μL for ITLC) was withdrawn at the designated time point and evaluated by ITLC. At each of the time points, the percentage of ^90Y released from each of the radiolabeled complexes into serum was assessed by ITLC.

[5] = In vitro serum stability of 177Lu-radiolabeled bimodal chelator complexes; format: in vitro ADME; details: 177Lu complex, human serum, pH 7, 37° C.
[6] = EDTA challenge of 64Cu-radiolabeled pyridyl chelator; format: physicochemical; details: 37° C.; for Bound (%): Cu-64 complex, EDTA solution 100-fold molar excess
Method: as §1

[7] = Stability and radioactivity level of 64Cu complexes in mice; format: in vivo; details: 64Cu complex

| Structure (SMILES) | Bound complex (%) ([1]; pH 5.5, ITLC, 0 h) | Bound complex (%) ([1]; pH 5.5, ITLC, 1 h) | Bound complex (%) ([1]; pH 5.5, ITLC, 4 h) | Bound complex (%) ([1]; pH 5.5, ITLC, 19 h) | Bound complex (%) ([1]; pH 5.5, ITLC, 24 h) | Bound complex (%) ([1]; pH 5.5, radio-HPLC, 25 h) | Bound complex (%) ([2]; pH 7, HPLC, 0 hour) | Bound complex (%) ([2]; pH 7, HPLC, 19 hour) | Bound complex (%) ([2]; pH 7, HPLC, 48 hour) | Bound complex (%) ([2]; pH 7, ITLC, 0 hour) | Bound complex (%) ([2]; pH 7, ITLC, 19 hour) | Bound complex (%) ([2]; pH 7, ITLC, 48 hour) | further results |
| --- | --- | --- | --- | --- | --- | --- | --- | --- | --- | --- | --- | --- | --- |
| NCCCNC(=O)c1ccc(CN(CCN2CCN(CC(=O)O)CCN(CC(=O)O)CC2)CC(=O)O)nc1 [Chelator 10] |  |  |  |  |  |  | (98.3 ± 2.0) % | (96.7 ± 0.0) % | (97.2 ± 0.21) % | 99.9 ± 0.07 | 99.8 ± 0.14% | 99.9 ± 0.0 | stability of 177Lu complex in EDTA solution [3]: remained stable in EDTA solution without releasing significant amount of the radioactivity; Bound (%) ([3]; pH 5.5, 0 hour): 99.8%; Bound (%) ([3]; pH 5.5, 1 hour): 95.7%; Bound (%) ([3]; pH 5.5, 6 hour): 94.9%; Bound (%) ([3]; pH 5.5, 24 hour): 94.6% |
| O=C(O)CN1CCN(CCN(CC(=O)O)CC(=O)O)CCN(CC(CCCc2ccc([N+](=O)[O-])cc2)N(CC(=O)O)CC(=O)O)CC1 (centres unmarked) [Chelator 1] |  |  |  |  |  |  |  |  |  |  |  |  | Bound radiolabeled complex (%) ([4]; 0 hour): 100 ± 0.00%; Bound radiolabeled complex (%) ([4]; 262 hour): 98.9 ± 1.34%; Bound radiolabeled complex (%) ([4]; 286 hour): 97.3 ± 2.92%; Bound radiolabeled complex (%) ([4]; 313 hour): 97.2 ± 2.46%; Bound radiolabeled complex (%) ([4]; 336 hour): 98.4 ± 0.67%; Bound radiolabeled complex (%) ([5]; 0 hour): 100 ± 0.07%; Bound radiolabeled complex (%) ([5]; 312 hour): 100 ± 0.00% |
| NCCCNC(=O)c1ccc(CN2CCN(CC(=O)O)CCN(CC(=O)O)CC2)nc1 [Chelator 13] |  |  |  |  |  |  | (100 ± 0.0) % | (100 ± 0.0) % | (100 ± 0.0) % | 100.0 ± 0.07 | 100.0 ± 0.0^ % | 99.9 ± 0.07 | Bound (%) ([6]; pH 5.5, 0 hour): 100 ± 0.07%; Bound (%) ([6]; pH 5.5, 1 hour): 99.9 ± 0.07%; Bound (%) ([6]; pH 5.5, 24 hour): 99.2 ± 0.42%; stability of 64Cu complex in EDTA challenge ([6]; EDTA 100-fold molar excess, 24 h): extremely stable in EDTA challenge |
| O=C(O)CN1CCN(CCN(CC(=O)O)Cc2ccccn2)CCN(CC(=O)O)CC1 [Chelator 4] |  |  |  |  |  |  | (99.9 ± 0.0) % | (99.9 ± 0.07) % | (100.0 ± 0.0) % | 99.9 ± 0.0 | 100 ± 0.0% | 100 ± 0.07 | stability of 177Lu complex in EDTA solution [3]: remained stable in EDTA solution without releasing significant amount of the radioactivity; Bound (%) ([3]; pH 5.5, 0 hour): 99.8%; Bound (%) ([3]; pH 5.5, 1 hour): 99.5%; Bound (%) ([3]; pH 5.5, 6 hour): 99.2%; Bound (%) ([3]; pH 5.5, 24 hour): 98.3% |
| O=C(O)CN(CCN1CCN(CCN(CC(=O)O)CC(=O)O)CCN(CC(CCCc2ccc([N+](=O)[O-])cc2)N(CC(=O)O)CC(=O)O)CC1)CC(=O)O (centres unmarked) [Chelator 2, 2-{[2-(4-{2-[bis(carboxymethyl)amino]-5-(4-nitrophenyl)pentyl}-7-{2-[bis(carboxy-methyl)amino]ethyl}-1,4,7-triazonan-1-yl)ethyl](carboxymethyl)amino}acetic acid] |  |  |  |  |  |  |  |  |  |  |  |  | Bound radiolabeled complex (%) ([5]; 0 hour): 99.9 ± 0.0% |

Continued, in another order:

| Bound complex (%) ([1]; pH 5.5, ITLC, 0 h) | Bound complex (%) ([1]; pH 5.5, ITLC, 1 h) | Bound complex (%) ([1]; pH 5.5, ITLC, 4 h) | Bound complex (%) ([1]; pH 5.5, ITLC, 19 h) | Bound complex (%) ([1]; pH 5.5, ITLC, 24 h) | Bound complex (%) ([1]; pH 5.5, radio-HPLC, 25 h) | Bound complex (%) ([2]; pH 7, HPLC, 0 hour) | Bound complex (%) ([2]; pH 7, HPLC, 19 hour) | Bound complex (%) ([2]; pH 7, HPLC, 48 hour) | Bound complex (%) ([2]; pH 7, ITLC, 0 hour) | Bound complex (%) ([2]; pH 7, ITLC, 19 hour) | Bound complex (%) ([2]; pH 7, ITLC, 48 hour) | Structure (SMILES) | further results |
| --- | --- | --- | --- | --- | --- | --- | --- | --- | --- | --- | --- | --- | --- |
| 100 ± 0.1 | 95.7 ± 0.5 | 87.5 ± 0.4 | 59.5 ± 0.6 | 53.4 ± 1.7 | 42.3 ± 0.3 |  |  |  |  |  |  | O=C(O)CN1CCN(CC(=O)O)CCN(Cc2cccs2)CC1 [Chelator F, 2-[4-(carboxymethyl)-7-(thiophen-2-ylmethyl)-1,4,7-triazonan-1-yl]acetic acid] |  |
| 97.7 ± 0.2 | 50.4 ± 0.4 | 45.8 ± 1.5 | 41.0 ± 0.4 | 39.0 ± 0.2 | 21.7 ± 1.3 |  |  |  |  |  |  | O=C(O)CN1CCN(CC(=O)O)CCN(CC(=O)CCc2ccc([N+](=O)[O-])cc2)CC1 [Chelator C, 2-[4-(carboxymethyl)-7-[4-(4-nitrophenyl)-2-oxobutyl]-1,4,7-triazonan-1-yl]acetic acid] | 64Cu activity transchelated by EDTA ([1]; 1 h time point): 50% |
| 99.9 ± 0.1 | 98.6 ± 0.6 | 96.8 ± 0.0 | 95.3 ± 0.5 | 94.9 ± 0.0 | 90.3 ± 0.3 |  |  |  |  |  |  | O=C(O)CN1CCN(CC(=O)O)CCN(C(CCc2ccc([N+](=O)[O-])cc2)C(=O)O)CC1 (centres unmarked) [Chelator A, 2-[4,7-bis(carboxymethyl)-1,4,7-triazonan-1-yl]-4-(4-nitrophenyl)butanoic acid, reference compound] | 64Cu activity dissociated from the complex / transferred to EDTA [1]: ~5%; stability in mice and radioactivity level in blood and normal organs [7]: stable in mice and displayed low radioactivity level in the blood and the normal organs |
| 99.9 ± 0.1 | 90.4 ± 0.1 | 69.2 ± 0.3 | 22.9 ± 2.1 | 19.4 ± 1.1 | 11.9 ± 0.6 |  |  |  |  |  |  | O=C(O)CN1CCN(CCCc2ccc([N+](=O)[O-])cc2)CCN(CC(=O)O)CC1 [Chelator B, 2-[4-(carboxymethyl)-7-[3-(4-nitrophenyl)propyl]-1,4,7-triazonan-1-yl]acetic acid] | 64Cu activity dissociated from the complex / transferred to EDTA [1]: ~80% |
| 99.5 ± 0.3 | 86.8 ± 0.7 | 79.1 ± 0.4 | 59.3 ± 0.0 | 55.0 ± 0.6 | 41.0 ± 2.6 |  |  |  |  |  |  | O=C(O)CN1CCN(CC(=O)O)CCN(CC(O)CCc2ccc([N+](=O)[O-])cc2)CC1 (centres unmarked) [Chelator D, 2-[4-(carboxymethyl)-7-[2-hydroxy-4-(4-nitrophenyl)butyl]-1,4,7-triazonan-1-yl]acetic acid] |  |
